Results: PubChem BioAssay AID328 (DTP/NCI, 2004)
Where “and” joins values, the source holds several entries; their conditions need not be identical. Equal values may be shown once. Inconclusive results and toxic doses are left out.

Tested on: BDF1 mice, P388 leukemia ip, median survival T/C
Assay: NCI In Vivo Anticancer Drug Screen. Data for tumor model P388 Leukemia (intraperitoneal) in B6D2F1 (BDF1) mice
Settings: endpoint: median survival time, higher = longer survival
Method in brief: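 Transplantable tumour in mice; compound vs vehicle dosing; survival scored; ratio of treated to control reported.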

[1] = dose: 25.0 mg/kg/injection, schedule: Q04DX003 (ip), vehicle: saline
[2] = dose: 50.0 mg/kg/injection, schedule: Q04DX003 (ip), vehicle: saline
[3] = dose: 100.0 mg/kg/injection, schedule: Q04DX003 (ip), vehicle: saline
[4] = dose: 50.0 mg/kg/injection, schedule: Q04DX003 (ip), vehicle: saline with Tween-80
[5] = dose: 100.0 mg/kg/injection, schedule: Q04DX003 (ip), vehicle: saline with Tween-80
[6] = dose: 200.0 mg/kg/injection, schedule: Q04DX003 (ip), vehicle: saline with Tween-80
[7] = dose: 100.0 mg/kg/injection, schedule: Q01DX009 (ip), vehicle: saline with Tween-80
[8] = dose: 25.0 mg/kg/injection, schedule: Q01DX009 (ip), vehicle: saline with Tween-80
[9] = dose: 50.0 mg/kg/injection, schedule: Q01DX009 (ip), vehicle: saline with Tween-80
[10] = dose: 200.0 mg/kg/injection, schedule: Q01DX009 (ip), vehicle: saline with Tween-80
[11] = dose: 400.0 mg/kg/injection, schedule: Q04DX003 (ip), vehicle: saline with Tween-80
[12] = dose: 25.0 mg/kg/injection, schedule: Q01DX009 (ip), vehicle: saline
[13] = dose: 50.0 mg/kg/injection, schedule: Q01DX009 (ip), vehicle: saline
[14] = dose: 200.0 mg/kg/injection, schedule: Q04DX003 (ip), vehicle: saline
[15] = dose: 25.0 mg/kg/injection, schedule: Q01DX009 (ip), vehicle: Klucel (hydroxypropylcellulose) (HPC)
[16] = dose: 50.0 mg/kg/injection, schedule: Q01DX009 (ip), vehicle: Klucel (hydroxypropylcellulose) (HPC)
[17] = dose: 100.0 mg/kg/injection, schedule: Q01DX009 (ip), vehicle: Klucel (hydroxypropylcellulose) (HPC)

For `O=COc1ccc([N+](=O)[O-])cc1`, the T/C [1] was 95 % of control, the T/C [2] was 100 % of control and the T/C [3] was 100 % of control.

In the case of `CN(C)c1ccc(C(=C2C=CC(=[N+](C)C)C=C2)c2ccccc2Cl)cc1`, the T/C (dose: 5.0 mg/kg/injection, schedule: Q01DX010 (ip), vehicle: saline) is reported as 110 % of control.

`CCN(CC)c1c(C)nnc2c(-c3ccccc3)cnn12` was tested, and the T/C [4] was 108 % of control, the T/C [5] was 100 % of control and the T/C [6] was 104 % of control.

For `O=C(CBr)c1ccc(I)cc1`, the T/C (dose: 13.0 mg/kg/injection, schedule: Q01DX010 (ip), vehicle: saline) was 109 % of control, the T/C (dose: 26.0 mg/kg/injection, schedule: Q01DX010 (ip), vehicle: saline) was 109 % of control and the T/C (dose: 43.0 mg/kg/injection, schedule: Q01DX010 (ip), vehicle: saline) was 90 % of control.

In the case of `Cc1cc(O)c2c(c1O)C(=O)C13C(=C2O)C(=O)C2C(O)C1C1C(O)C3C(=O)C3=C(O)c4c(O)cc(C)c(O)c4C(=O)C321` (stereo not drawn), the T/C (dose: 2.6 mg/kg/injection, schedule: Q04DX003 (ip), vehicle: saline with Tween-80) is reported as 113 % of control and the T/C (dose: 4.0 mg/kg/injection, schedule: Q04DX003 (ip), vehicle: saline with Tween-80) is reported as 118 % of control.

In the case of `CC(=O)OC1CC2CC1C1C3C=CC(C3)C21` (stereo not drawn), the T/C [7] is reported as 109 % of control.

With `CNC(=O)OCCN(CCOC(=O)NC)C(=O)N1c2ccccc2Sc2ccccc21` the T/C [8] was 95 % of control and 107 % of control, the T/C [9] was 98 % of control and the T/C [7] was 98 % of control and 116 % of control. For the same compound, the T/C [10] was 115 % of control.

For `CCc1ccccc1NC(=O)c1cccc(Cl)c1`, the T/C [5] was 95 % of control, the T/C [6] was 100 % of control and the T/C [11] was 104 % of control.

For `COC(=O)C1(C)CCc2c(ccc3ccccc23)C1=O` (stereo not drawn), the T/C (dose: 100.0 mg/kg/injection, schedule: Q01DX001 (ip), vehicle: other) was 100 % of control, the T/C (dose: 200.0 mg/kg/injection, schedule: Q01DX001 (ip), vehicle: other) was 95 % of control and the T/C (dose: 400.0 mg/kg/injection, schedule: Q01DX001 (ip), vehicle: other) was 113 % of control.

With `O=C1/C(=C/c2ccccc2)Cc2ccccc21` the T/C [8] was 96 % of control, the T/C [9] was 96 % of control and the T/C [7] was 94 % of control. The T/C [5] was 107 % of control, the T/C [10] was 96 % of control and the T/C [6] was 100 % of control. For the same compound, the T/C [11] was 99 % of control.

In the case of `COc1ccc(CCNC(=S)NCCc2ccc(OC)c(OC)c2)cc1OC`, the T/C (dose: 50.0 mg/kg/injection, schedule: Q01DX001 (ip), vehicle: Klucel (hydroxypropylcellulose) (HPC)) is reported as 100 % of control, the T/C (dose: 100.0 mg/kg/injection, schedule: Q01DX001 (ip), vehicle: Klucel (hydroxypropylcellulose) (HPC)) is reported as 100 % of control and the T/C (dose: 200.0 mg/kg/injection, schedule: Q01DX001 (ip), vehicle: Klucel (hydroxypropylcellulose) (HPC)) is reported as 90 % of control.

With `COc1ccc2[nH]c(C)c(SC)c2c1` the T/C (dose: 50.0 mg/kg/injection, schedule: Q04DX002 (ip), vehicle: saline with Tween-80) was 98 % of control, the T/C (dose: 100.0 mg/kg/injection, schedule: Q04DX002 (ip), vehicle: saline with Tween-80) was 100 % of control and the T/C (dose: 200.0 mg/kg/injection, schedule: Q04DX002 (ip), vehicle: saline with Tween-80) was 89 % of control.

For `CCOC(=O)/C=C/c1c[nH]c(=O)[nH]c1=O`, the T/C [12] was 101 % of control, the T/C [13] was 101 % of control and the T/C (dose: 100.0 mg/kg/injection, schedule: Q01DX009 (ip), vehicle: saline) was 101 % of control. The T/C [3] was 114 % of control, the T/C (dose: 200.0 mg/kg/injection, schedule: Q01DX009 (ip), vehicle: saline) was 104 % of control and the T/C [14] was 96 % of control. For the same compound, the T/C (dose: 400.0 mg/kg/injection, schedule: Q04DX003 (ip), vehicle: saline) was 96 % of control.

`CC(CN(C)C)CN1c2ccccc2Sc2ccccc21` (stereo not drawn) was tested, and the T/C (dose: 6.25 mg/kg/injection, schedule: Q01DX009 (ip), vehicle: saline) was 100 % of control, the T/C (dose: 6.25 mg/kg/injection, schedule: Q04DX003 (ip), vehicle: saline) was 100 % of control and the T/C (dose: 12.5 mg/kg/injection, schedule: Q01DX009 (ip), vehicle: saline) was 108 % of control and 90 % of control. The T/C (dose: 12.5 mg/kg/injection, schedule: Q04DX003 (ip), vehicle: Klucel (hydroxypropylcellulose) (HPC)) was 100 % of control, the T/C (dose: 12.5 mg/kg/injection, schedule: Q04DX003 (ip), vehicle: saline with Tween-80) was 110 % of control and the T/C (dose: 12.5 mg/kg/injection, schedule: Q04DX003 (ip), vehicle: saline) was 108 % of control. The T/C [8] was 109 % of control, the T/C [12] was 112 % of control and 109 % of control and the T/C (dose: 25.0 mg/kg/injection, schedule: Q04DX003 (ip), vehicle: Klucel (hydroxypropylcellulose) (HPC)) was 124 % of control. For the same compound, the T/C [1] was 108 % of control, the T/C [13] was 108 % of control and the T/C (dose: 50.0 mg/kg/injection, schedule: Q04DX003 (ip), vehicle: Klucel (hydroxypropylcellulose) (HPC)) was 124 % of control. For the same compound, the T/C [4] was 89 % of control and the T/C [2] was 120 % of control.

In the case of `CCCCC/C(C)=N\Nc1ccccn1`, the T/C (dose: 12.5 mg/kg/injection, schedule: Q01DX009 (ip), vehicle: Klucel (hydroxypropylcellulose) (HPC)) is reported as 100 % of control, the T/C [15] is reported as 113 % of control and the T/C [16] is reported as 104 % of control and 113 % of control. For the same compound, the T/C [17] was 118 % of control.

With `O/N=C\c1ccccc1` the T/C [15] was 108 % of control, the T/C [16] was 95 % of control and the T/C (dose: 75.0 mg/kg/injection, schedule: Q04DX003 (ip), vehicle: saline with Tween-80) was 110 % of control. For the same compound, the T/C [17] was 91 % of control and the T/C (dose: 150.0 mg/kg/injection, schedule: Q04DX003 (ip), vehicle: saline with Tween-80) was 105 % of control.

For `Oc1ccc(I)c2cccnc12`, the T/C (dose: 62.5 mg/kg/injection, schedule: Q01DX010 (ip), vehicle: carboxymethylcellulose (CMC)) was 90 % of control, the T/C (dose: 250.0 mg/kg/injection, schedule: Q01DX010 (ip), vehicle: carboxymethylcellulose (CMC)) was 100 % of control and the T/C (dose: 500.0 mg/kg/injection, schedule: Q01DX010 (ip), vehicle: carboxymethylcellulose (CMC)) was 110 % of control.

In the case of `CCCCCN(C)/N=N/c1nc[nH]c1C(N)=O`, the T/C [10] is reported as 100 % of control, the T/C (dose: 264.0 mg/kg/injection, schedule: Q04DX003 (ip), vehicle: Klucel (hydroxypropylcellulose) (HPC)) is reported as 90 % of control and the T/C (dose: 400.0 mg/kg/injection, schedule: Q04DX003 (ip), vehicle: Klucel (hydroxypropylcellulose) (HPC)) is reported as 86 % of control.

`Cc1ccc(NC(=O)N(CCCl)N=O)c(C)c1` was tested, and the T/C (dose: 6.25 mg/kg/injection, schedule: Q01DX009 (ip), vehicle: saline with Tween-80) was 90 % of control, the T/C (dose: 12.5 mg/kg/injection, schedule: Q01DX009 (ip), vehicle: saline with Tween-80) was 159 % of control and the T/C [8] was 118 % of control.

For `C=C(C)[C@H]1Cc2c(ccc3c2O[C@@H]2COc4cc(OC)c(OC)cc4[C@@H]2C3=O)O1`, the T/C (dose: 4.0 mg/kg/injection, schedule: Q01DX010 (ip), vehicle: saline) was 109 % of control, the T/C (dose: 10.0 mg/kg/injection, schedule: Q01DX009 (ip), vehicle: saline) was 95 % of control and the T/C (dose: 20.0 mg/kg/injection, schedule: Q01DX009 (ip), vehicle: saline) was 155 % of control. For the same compound, the T/C (dose: 40.0 mg/kg/injection, schedule: Q01DX009 (ip), vehicle: saline) was 120 % of control.

In the case of `CCOC(=O)C(N)CSC(c1ccccc1)(c1ccccc1)c1ccccc1` (stereo not drawn), the T/C (dose: 9.6 mg/kg/injection, schedule: Q04DX003 (ip), vehicle: saline) is reported as 95 % of control, the T/C (dose: 14.0 mg/kg/injection, schedule: Q04DX003 (ip), vehicle: saline) is reported as 100 % of control and the T/C (dose: 33.0 mg/kg/injection, schedule: Q04DX003 (ip), vehicle: saline) is reported as 122 % of control. The T/C [2] was 155 % of control, the T/C [3] was 175 % of control and the T/C (dose: 132.0 mg/kg/injection, schedule: Q04DX003 (ip), vehicle: saline) was 181 % of control. The T/C [14] was 181 % of control and 215 % of control and the T/C (dose: 300.0 mg/kg/injection, schedule: Q04DX003 (ip), vehicle: saline) was 163 % of control.

`CC(C#N)(Nc1ccccc1)c1ccco1` (stereo not drawn) was tested, and the T/C (dose: 6.25 mg/kg/injection, schedule: Q04DX003 (ip), vehicle: other) was 100 % of control, the T/C (dose: 12.5 mg/kg/injection, schedule: Q04DX003 (ip), vehicle: other) was 100 % of control and the T/C (dose: 25.0 mg/kg/injection, schedule: Q04DX003 (ip), vehicle: other) was 100 % of control.

For `CCCC(=O)Oc1ccc2c(C)cc(=O)oc2c1`, the T/C [5] was 104 % of control, the T/C [6] was 90 % of control and the T/C [11] was 100 % of control.
